Results taken from ChEMBL document CHEMBL5346859, “Dual-target Janus kinase (JAK) inhibitors: Comprehensive review on the JAK-based strategies for treating solid or hematological malignancies and immune-related diseases” (Eur J Med Chem, 2022).
One block for each compound: values may come before it.

Assays:
A2058 = experiment: Antitumor activity against human A2058 cells xenografted in NSG mouse assessed as tumor growth inhibition at 25 mg/kg, po administered twice daily for 18 days relative to control; format: functional; conditions: A2058, 432 h, time 18 day, read-out: TGI
[1] = target: T1, Tyrosine-protein kinase JAK2 (Homo sapiens, UniProt O60674); experiment: Inhibition of recombinant GST-tagged JAK2 catalytic domain (unknown origin) using pEY (4:1) as substrate incubated for 120 mins in presence of 33P-labeled ATP
T1 sequence (O60674 whole entry, the tested form may be a part): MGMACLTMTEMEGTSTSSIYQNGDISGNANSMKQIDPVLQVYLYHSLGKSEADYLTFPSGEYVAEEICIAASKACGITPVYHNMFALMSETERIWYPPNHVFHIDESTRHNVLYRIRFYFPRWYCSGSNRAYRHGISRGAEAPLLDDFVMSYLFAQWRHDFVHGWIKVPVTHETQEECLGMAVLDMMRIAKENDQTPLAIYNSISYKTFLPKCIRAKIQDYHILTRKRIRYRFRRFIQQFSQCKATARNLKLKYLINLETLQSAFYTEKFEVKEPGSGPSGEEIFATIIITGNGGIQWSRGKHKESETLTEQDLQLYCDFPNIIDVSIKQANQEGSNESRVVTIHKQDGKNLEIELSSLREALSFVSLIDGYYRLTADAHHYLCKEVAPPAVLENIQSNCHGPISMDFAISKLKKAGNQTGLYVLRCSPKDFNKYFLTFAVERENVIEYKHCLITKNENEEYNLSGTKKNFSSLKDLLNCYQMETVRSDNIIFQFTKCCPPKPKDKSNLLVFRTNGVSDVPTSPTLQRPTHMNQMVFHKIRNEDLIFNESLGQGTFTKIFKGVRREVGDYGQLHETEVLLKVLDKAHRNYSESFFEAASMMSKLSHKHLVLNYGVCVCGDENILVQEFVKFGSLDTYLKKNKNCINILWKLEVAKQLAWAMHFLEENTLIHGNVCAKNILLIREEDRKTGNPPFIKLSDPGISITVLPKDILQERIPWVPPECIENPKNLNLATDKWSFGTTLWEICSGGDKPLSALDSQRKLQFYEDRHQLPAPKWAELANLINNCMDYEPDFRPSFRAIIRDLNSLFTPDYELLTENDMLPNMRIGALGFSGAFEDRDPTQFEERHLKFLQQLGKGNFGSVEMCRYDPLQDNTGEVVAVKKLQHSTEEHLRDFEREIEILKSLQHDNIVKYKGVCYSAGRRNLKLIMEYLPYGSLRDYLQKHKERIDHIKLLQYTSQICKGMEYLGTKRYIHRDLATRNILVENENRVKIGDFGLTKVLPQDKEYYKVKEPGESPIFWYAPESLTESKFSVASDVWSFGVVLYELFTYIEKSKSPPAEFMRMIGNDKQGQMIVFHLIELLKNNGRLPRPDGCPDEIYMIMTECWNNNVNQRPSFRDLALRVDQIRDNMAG

[2] = target: T2, Proto-oncogene tyrosine-protein kinase Src (Homo sapiens, UniProt P12931); experiment: Inhibition of recombinant GST-tagged c-Src catalytic domain (unknown origin) using pEY (4:1) as substrate incubated for 120 mins in presence of 33P-labeled ATP
T2 sequence (P12931 2-536 limits assumed): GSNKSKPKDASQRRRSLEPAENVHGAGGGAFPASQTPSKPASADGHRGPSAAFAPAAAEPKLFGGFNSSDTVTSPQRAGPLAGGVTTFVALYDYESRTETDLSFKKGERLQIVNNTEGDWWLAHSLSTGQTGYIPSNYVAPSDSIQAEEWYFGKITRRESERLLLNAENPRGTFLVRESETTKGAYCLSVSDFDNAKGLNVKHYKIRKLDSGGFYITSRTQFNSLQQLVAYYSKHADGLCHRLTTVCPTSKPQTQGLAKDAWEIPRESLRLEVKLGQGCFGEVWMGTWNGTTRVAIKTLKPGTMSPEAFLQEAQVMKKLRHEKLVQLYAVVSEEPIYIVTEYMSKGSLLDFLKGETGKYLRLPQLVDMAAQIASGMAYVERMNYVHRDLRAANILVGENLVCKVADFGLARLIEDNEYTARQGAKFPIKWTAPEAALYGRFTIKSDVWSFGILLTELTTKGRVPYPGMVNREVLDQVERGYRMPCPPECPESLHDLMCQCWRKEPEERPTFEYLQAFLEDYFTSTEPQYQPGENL

[3] = target: T3, Non-receptor tyrosine-protein kinase TYK2 (Homo sapiens, UniProt P29597); experiment: Inhibition of recombinant GST-tagged TYK2 catalytic domain (unknown origin) using pEY (4:1) as substrate incubated for 120 mins in presence of 33P-labeled ATP
T3 sequence (P29597 whole entry, the tested form may be a part): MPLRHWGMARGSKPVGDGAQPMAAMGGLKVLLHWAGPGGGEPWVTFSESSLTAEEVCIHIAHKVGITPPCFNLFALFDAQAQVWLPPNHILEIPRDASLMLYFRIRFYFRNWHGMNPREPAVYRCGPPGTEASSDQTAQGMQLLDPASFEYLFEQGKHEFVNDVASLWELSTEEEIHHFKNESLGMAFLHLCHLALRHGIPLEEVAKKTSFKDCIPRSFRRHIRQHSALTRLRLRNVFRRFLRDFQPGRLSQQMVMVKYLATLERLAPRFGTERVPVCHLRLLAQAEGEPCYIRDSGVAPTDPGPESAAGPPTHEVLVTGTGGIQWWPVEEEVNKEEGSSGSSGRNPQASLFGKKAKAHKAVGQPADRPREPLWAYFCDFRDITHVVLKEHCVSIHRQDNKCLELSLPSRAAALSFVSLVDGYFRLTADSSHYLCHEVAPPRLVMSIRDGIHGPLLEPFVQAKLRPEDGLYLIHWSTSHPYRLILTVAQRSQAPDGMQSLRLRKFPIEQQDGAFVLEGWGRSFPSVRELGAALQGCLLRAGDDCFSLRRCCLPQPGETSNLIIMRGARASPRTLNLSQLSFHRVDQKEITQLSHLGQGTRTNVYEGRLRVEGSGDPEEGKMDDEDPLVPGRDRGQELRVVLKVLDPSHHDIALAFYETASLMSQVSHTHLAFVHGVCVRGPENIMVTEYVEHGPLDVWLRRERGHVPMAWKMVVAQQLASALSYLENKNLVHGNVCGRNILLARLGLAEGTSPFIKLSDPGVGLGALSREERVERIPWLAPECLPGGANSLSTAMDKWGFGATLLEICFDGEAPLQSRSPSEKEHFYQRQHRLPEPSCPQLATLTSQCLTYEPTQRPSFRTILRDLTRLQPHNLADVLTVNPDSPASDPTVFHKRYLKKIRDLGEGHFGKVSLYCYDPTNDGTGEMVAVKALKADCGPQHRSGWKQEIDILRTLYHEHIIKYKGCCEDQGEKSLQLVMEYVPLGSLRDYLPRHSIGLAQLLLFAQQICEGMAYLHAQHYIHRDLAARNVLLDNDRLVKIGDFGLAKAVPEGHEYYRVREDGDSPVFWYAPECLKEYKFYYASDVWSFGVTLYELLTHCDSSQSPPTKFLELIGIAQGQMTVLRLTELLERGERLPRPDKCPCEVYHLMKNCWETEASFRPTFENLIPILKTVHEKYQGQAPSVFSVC

[4] = target: T4, Tyrosine-protein kinase JAK1 (Homo sapiens, UniProt P23458); experiment: Inhibition of recombinant GST-tagged JAK1 catalytic domain (unknown origin) using pEY (4:1) as substrate incubated for 120 mins in presence of 33P-labeled ATP
T4 sequence (P23458 whole entry, the tested form may be a part): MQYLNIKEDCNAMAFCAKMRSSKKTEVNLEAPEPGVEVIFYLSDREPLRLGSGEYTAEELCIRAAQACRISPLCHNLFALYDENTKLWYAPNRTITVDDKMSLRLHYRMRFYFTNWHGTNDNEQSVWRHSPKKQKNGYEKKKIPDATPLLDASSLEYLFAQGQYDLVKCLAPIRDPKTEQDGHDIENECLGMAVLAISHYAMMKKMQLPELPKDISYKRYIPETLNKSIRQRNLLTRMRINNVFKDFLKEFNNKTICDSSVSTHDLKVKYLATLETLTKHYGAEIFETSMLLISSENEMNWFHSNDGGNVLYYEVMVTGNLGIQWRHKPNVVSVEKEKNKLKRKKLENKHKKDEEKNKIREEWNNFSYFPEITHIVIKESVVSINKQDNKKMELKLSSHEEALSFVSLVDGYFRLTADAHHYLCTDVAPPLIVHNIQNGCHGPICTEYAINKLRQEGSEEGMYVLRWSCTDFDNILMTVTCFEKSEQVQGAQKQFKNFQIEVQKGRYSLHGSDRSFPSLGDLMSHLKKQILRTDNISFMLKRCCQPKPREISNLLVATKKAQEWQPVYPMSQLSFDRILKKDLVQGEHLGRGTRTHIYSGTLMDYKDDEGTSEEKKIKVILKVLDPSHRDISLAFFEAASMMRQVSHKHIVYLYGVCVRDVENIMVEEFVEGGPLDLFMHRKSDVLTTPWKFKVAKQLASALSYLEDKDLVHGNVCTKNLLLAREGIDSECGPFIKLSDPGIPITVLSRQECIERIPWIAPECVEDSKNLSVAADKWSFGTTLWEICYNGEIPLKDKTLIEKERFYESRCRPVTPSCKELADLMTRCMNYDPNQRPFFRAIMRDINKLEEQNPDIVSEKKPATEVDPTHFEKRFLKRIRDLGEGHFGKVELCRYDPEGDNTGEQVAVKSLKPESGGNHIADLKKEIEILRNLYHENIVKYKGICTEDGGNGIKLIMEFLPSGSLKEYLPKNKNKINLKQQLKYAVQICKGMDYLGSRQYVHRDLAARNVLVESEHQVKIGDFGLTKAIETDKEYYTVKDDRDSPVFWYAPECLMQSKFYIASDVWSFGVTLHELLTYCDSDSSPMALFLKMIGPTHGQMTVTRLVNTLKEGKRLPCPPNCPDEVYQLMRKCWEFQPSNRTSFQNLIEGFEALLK

[5] = target: T3, Non-receptor tyrosine-protein kinase TYK2; experiment: Inhibition of recombinant TYK2 (unknown origin) incubated for 120 mins in presence of [33P]-ATP by hotspot assay
[6] = target: T1, Tyrosine-protein kinase JAK2; experiment: Inhibition of recombinant JAK2 (unknown origin) incubated for 120 mins in presence of [33P]-ATP by hotspot assay
[7] = target: T4, Tyrosine-protein kinase JAK1; experiment: Inhibition of recombinant JAK1 (unknown origin) incubated for 120 mins in presence of [33P]-ATP by hotspot assay
MIA PaCa-2 = experiment: Antiproliferative activity against human MIA PaCa-2 cells assessed as inhibition of cell growth incubated for 48 hrs by MTS assay; format: functional, cell-based; conditions: MIA PaCa-2, 48 h
[8] = target: T2, Proto-oncogene tyrosine-protein kinase Src; experiment: Inhibition of recombinant c-Src (unknown origin) incubated for 120 mins in presence of [33P]-ATP by hotspot assay
[9] = target: T5, Receptor-type tyrosine-protein kinase FLT3 (Homo sapiens, UniProt P36888); experiment: Inhibition of FLT3 (unknown origin) using FAM-labeled peptide as substrate preincubated with compound for 10 mins followed by substrate addition and measured after 60 mins in presence of ATP
T5 sequence (P36888 whole entry): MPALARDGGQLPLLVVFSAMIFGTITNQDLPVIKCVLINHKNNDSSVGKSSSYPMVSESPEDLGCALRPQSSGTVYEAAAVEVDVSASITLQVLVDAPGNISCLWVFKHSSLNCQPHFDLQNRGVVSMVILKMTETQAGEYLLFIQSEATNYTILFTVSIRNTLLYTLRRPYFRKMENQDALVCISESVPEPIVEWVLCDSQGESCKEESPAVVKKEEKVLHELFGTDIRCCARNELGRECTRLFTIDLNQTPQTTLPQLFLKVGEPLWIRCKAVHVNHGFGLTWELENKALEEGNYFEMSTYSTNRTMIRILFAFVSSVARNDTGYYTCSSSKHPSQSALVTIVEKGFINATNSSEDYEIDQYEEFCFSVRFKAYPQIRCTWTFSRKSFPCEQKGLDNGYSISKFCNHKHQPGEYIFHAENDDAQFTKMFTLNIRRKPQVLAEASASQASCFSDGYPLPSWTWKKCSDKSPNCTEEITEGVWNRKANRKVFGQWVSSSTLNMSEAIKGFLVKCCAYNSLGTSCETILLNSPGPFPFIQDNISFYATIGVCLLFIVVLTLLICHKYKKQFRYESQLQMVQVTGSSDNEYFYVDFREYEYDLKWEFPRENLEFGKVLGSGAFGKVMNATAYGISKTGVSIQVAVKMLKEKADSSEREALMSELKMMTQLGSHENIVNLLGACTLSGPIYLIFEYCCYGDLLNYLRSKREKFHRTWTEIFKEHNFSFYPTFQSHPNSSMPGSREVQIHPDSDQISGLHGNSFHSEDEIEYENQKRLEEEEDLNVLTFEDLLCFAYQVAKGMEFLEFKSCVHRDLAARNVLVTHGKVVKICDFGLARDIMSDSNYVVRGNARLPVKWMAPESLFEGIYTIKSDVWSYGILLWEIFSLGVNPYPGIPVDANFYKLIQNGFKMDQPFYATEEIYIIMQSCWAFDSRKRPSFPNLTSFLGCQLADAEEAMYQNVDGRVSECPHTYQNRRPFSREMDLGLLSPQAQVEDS

[10] = target: T1, Tyrosine-protein kinase JAK2; experiment: Inhibition of JAK2 (unknown origin) using FAM-labeled peptide as substrate preincubated with compound for 10 mins followed by substrate addition and measured after 60 mins in presence of ATP
[11] = Metabolic stability in rat liver microsomes assessed as half life by LC-MS/MS analysis; format: ADME, Microsome
HEL = experiment: Antiproliferative activity against HEL cells assessed as inhibition of cell growth incubated for 48 hrs by CCK-8 assay; format: functional, cell-based; conditions: Homo sapiens
MOLM-13 = experiment: Antiproliferative activity against human MOLM-13 cells assessed as inhibition of cell growth incubated for 48 hrs by CCK-8 assay; format: functional, cell-based; conditions: MOLM-13, 48 h
[12] = target: T5, Receptor-type tyrosine-protein kinase FLT3
[13] = target: T1, Tyrosine-protein kinase JAK2

Structure (SMILES): O=C1Nc2cc(Br)ccc2/C1=C1/Nc2ccccc2/C1=N\OCCN1CCNCC1
inhibition in vivo at 25 mg/kg (A2058): 50%
IC50 [1]: 28 nM
IC50 [2]: 0.2 nM
IC50 [3]: 50 nM
IC50 [4]: 600 nM

Structure (SMILES): COc1ccc2c(c1)/C(=C1/Nc3ccccc3/C1=N\OCC(O)CO)C(=O)N2 (stereo not given)
IC50 [5]: 0.7 nM
IC50 [6]: 74.1 nM
IC50 [7]: 10.4 nM
IC50 (MIA PaCa-2): 680 nM
IC50 [8]: 10.4 nM

Structure (SMILES): O=C1Nc2c(Br)cccc2/C1=C1/Nc2ccccc2/C1=N\OCCN1CCNCC1
IC50 [1]: > 10000 nM

Structure (SMILES): COc1ccc2cc1COC/C=C/COCc1cccc(c1)-c1ccnc(n1)N2
IC50 [12]: 190 nM
IC50 [13]: 70 nM

More lines, main results first:

IC50 [9]: 1.4 nM
IC50 [10]: 2.9 nM
Structure (SMILES): CC(=O)c1ccc(NC(=O)N2CCN(c3ccnc(Nc4ccc(N5CCOCC5)cc4)n3)CC2)cc1

half-life [11]: 31 min
IC50 [9]: 0.68 nM
IC50 (MOLM-13): 19 nM
IC50 [10]: 1.8 nM
Structure (SMILES): CC(=O)c1ccc(NC(=O)N2CCN(c3nc(Nc4ccc(N5CCOCC5)cc4)ncc3Cl)CC2)cc1
IC50 (HEL): 500 nM
